# Measured values from publication PMC11579512, “Deoxybouvardin-glucoside induces apoptosis in non-small cell lung cancer cells by targeting EGFR/MET and AKT signaling pathway” (EXCLI Journal, 2024).
# Key:
# Type in all cases: cell-based, human
# [1] = tested on: p-EGFR (Y1068); assay: Western blot p-EGFR (Y1068) in HCC827 and HCC827GR cells; conditions: DBG 3, 6, 12 nM, 48 h
# Protocol: (§1) HaCaT cells were grown in DMEM, whereas HCC827 and HCC827GR cells were grown in RPMI 1640. All culture media were supplemented with FBS (10 %) and P/S (1 %), and the cells were grown at 37 °C in 5 % CO2.
# (§2) Cells were lysed in RIPA buffer, and protein concentration was determined using a Bio-Rad DC Protein Assay kit (Bio-Rad, Hercules, CA, USA). Protein samples from the cell lysates were resolved by sodium dodecyl sulfate-polyacrylamide gel electrophoresis and then transferred onto polyvinylidene fluoride membranes. The membranes were blocked with 3 % or 5 % skim milk and then incubated at 4 °C overnight with the indicated primary antibodies, followed by the corresponding horseradish peroxidase-conjugated secondary antibodies at RT for 2 h. Protein bands were visualized using western blotting luminol reagent solution and ImageQuant LAS 500 (GE Healthcare, Uppsala, Sweden). The density of the bands was quantified using ImageJ software (NIH, Bethesda, MD, USA).
# [2] = tested on: HCC827GR cells; assay: Annexin V/7-AAD apoptosis, HCC827GR; parameters: Early apoptosis / Total apopt / Dead / Live: unit not given here; conditions: for apoptotic cells (annexin V+): 48 h, background 0.92 %; for Late apoptosis/Dead / Early apoptosis / Total apopt / Dead / Live: HCC827GR
# Protocol: as §1
# Apoptosis was measured using a Muse™ Annexin V & Dead Cell Kit (MCH100105, Merck Millipore). The fluorescent signal was analyzed with a Muse™ Cell Analyzer.
# [3] = tested on: HCC827GR cells; assay: MTT viability after NAC pretreatment, HCC827GR; conditions: for cell viability (relative to untreated = 100.00): HCC827GR
# Protocol: All culture media were supplemented with FBS (10 %) and P/S (1 %), and the cells were grown at 37 °C in 5 % CO2.
# The cells were treated with MTT and incubated for 2 h. The supernatants were removed, and the remaining formazan crystals were dissolved in DMSO before absorbance measurement at 570 nm using a Multiscan GO spectrophotometer (Thermo Fisher Scientific, Vantaa, Finland).
# [4] = tested on: Bim; assay: Immunoblot Bim in HCC827 and HCC827GR cells; conditions: for Bim protein Ratio: DBG 0 nM 0.47
# Protocol: as §1, §2
# [5] = tested on: HCC827 cells; assay: Cell cycle distribution (Muse, PI), HCC827; conditions: 48 h
# Protocol: as §1
# Cell cycle distribution analysis was performed using a Muse™ Cell Cycle Kit (MCH100106, Merck Millipore, Billerica, MA) based on propidium iodide (PI) staining. The cells were collected, fixed in 70 % ethanol overnight at -20 °C, and then stained with a Muse™ Cell Cycle Reagent at RT for 30 min in the dark. The cell cycle distribution was measured using a Muse™ Cell Analyzer (Merck Millipore).
smiles,measurement,setting,value
"COc1ccc(C[C@H]2C(=O)N[C@@H](C)C(=O)N(C)[C@H]3Cc4ccc(cc4)Oc4cc(ccc4O[C@@H]4O[C@H](CO)[C@@H](O)[C@H](O)[C@H]4O)C[C@@H](C(=O)N[C@H](C)C(=O)N[C@@H](C)C(=O)N2C)N(C)C3=O)cc1 [DBG, deoxybouvardin glucoside]",phosphorylation level of EGFR,[1],decreased
same,apoptotic cells (annexin V+),[2]; DBG 3 nM,11.08%
same,apoptotic cells (annexin V+),[2]; DBG 6 nM,25.58%
same,apoptotic cells (annexin V+),[2]; DBG 12 nM,42.32%
same,Late apoptosis/Dead,"[2]; DBG 3 nM, mean of 3 samples, untreated 0.23",0.23
same,Early apoptosis,"[2]; DBG 3 nM, mean of 3 samples, untreated 0.68",10.85
same,Total apopt,"[2]; DBG 3 nM, mean of 3 samples, untreated 0.92",11.08
same,Dead,"[2]; DBG 3 nM, mean of 3 samples, untreated 5.53",0.05
same,Live,"[2]; DBG 3 nM, mean of 3 samples, untreated 93.55",88.87
same,Dead,"[2]; DBG 3 nM, replicate 1",0.05
same,Early apoptosis,"[2]; DBG 3 nM, replicate 1",9.50
same,Late apoptosis/Dead,"[2]; DBG 3 nM, replicate 1",0.15
same,Live,"[2]; DBG 3 nM, replicate 1",90.30
same,Total apopt,"[2]; DBG 3 nM, replicate 1",9.65
same,Dead,"[2]; DBG 3 nM, replicate 2",0.05
same,Early apoptosis,"[2]; DBG 3 nM, replicate 2",10.80
same,Late apoptosis/Dead,"[2]; DBG 3 nM, replicate 2",0.25
same,Live,"[2]; DBG 3 nM, replicate 2",88.90
same,Total apopt,"[2]; DBG 3 nM, replicate 2",11.05
same,Dead,"[2]; DBG 3 nM, replicate 3",0.05
same,Early apoptosis,"[2]; DBG 3 nM, replicate 3",12.25
same,Late apoptosis/Dead,"[2]; DBG 3 nM, replicate 3",0.30
same,Live,"[2]; DBG 3 nM, replicate 3",87.40
same,Total apopt,"[2]; DBG 3 nM, replicate 3",12.55
same,Late apoptosis/Dead,"[2]; DBG 6 nM, mean of 3 samples, untreated 0.23",0.50
same,Early apoptosis,"[2]; DBG 6 nM, mean of 3 samples, untreated 0.68",25.08
same,Total apopt,"[2]; DBG 6 nM, mean of 3 samples, untreated 0.92",25.58
same,Dead,"[2]; DBG 6 nM, mean of 3 samples, untreated 5.53",0.10
same,Live,"[2]; DBG 6 nM, mean of 3 samples, untreated 93.55",74.32
same,Dead,"[2]; DBG 6 nM, replicate 1",0.00
same,Early apoptosis,"[2]; DBG 6 nM, replicate 1",24.55
same,Late apoptosis/Dead,"[2]; DBG 6 nM, replicate 1",0.55
same,Live,"[2]; DBG 6 nM, replicate 1",74.90
same,Total apopt,"[2]; DBG 6 nM, replicate 1",25.10
same,Dead,"[2]; DBG 6 nM, replicate 2",0.15
same,Early apoptosis,"[2]; DBG 6 nM, replicate 2",25.60
same,Late apoptosis/Dead,"[2]; DBG 6 nM, replicate 2",0.40
same,Live,"[2]; DBG 6 nM, replicate 2",73.85
same,Total apopt,"[2]; DBG 6 nM, replicate 2",26.00
same,Dead,"[2]; DBG 6 nM, replicate 3",0.15
same,Early apoptosis,"[2]; DBG 6 nM, replicate 3",25.10
same,Late apoptosis/Dead,"[2]; DBG 6 nM, replicate 3",0.55
same,Live,"[2]; DBG 6 nM, replicate 3",74.20
same,Total apopt,"[2]; DBG 6 nM, replicate 3",25.65
same,Late apoptosis/Dead,"[2]; DBG 12 nM, mean of 3 samples, untreated 0.23",10.45
same,Early apoptosis,"[2]; DBG 12 nM, mean of 3 samples, untreated 0.68",31.87
same,Total apopt,"[2]; DBG 12 nM, mean of 3 samples, untreated 0.92",42.32
same,Dead,"[2]; DBG 12 nM, mean of 3 samples, untreated 5.53",0.13
same,Live,"[2]; DBG 12 nM, mean of 3 samples, untreated 93.55",57.55
same,Dead,"[2]; DBG 12 nM, replicate 1",0.15
same,Early apoptosis,"[2]; DBG 12 nM, replicate 1",31.85
same,Late apoptosis/Dead,"[2]; DBG 12 nM, replicate 1",10.85
same,Live,"[2]; DBG 12 nM, replicate 1",57.15
same,Total apopt,"[2]; DBG 12 nM, replicate 1",42.70
same,Dead,"[2]; DBG 12 nM, replicate 2",0.15
same,Early apoptosis,"[2]; DBG 12 nM, replicate 2",31.65
same,Late apoptosis/Dead,"[2]; DBG 12 nM, replicate 2",10.50
same,Live,"[2]; DBG 12 nM, replicate 2",57.70
same,Total apopt,"[2]; DBG 12 nM, replicate 2",42.15
same,Dead,"[2]; DBG 12 nM, replicate 3",0.10
same,Early apoptosis,"[2]; DBG 12 nM, replicate 3",32.10
same,Late apoptosis/Dead,"[2]; DBG 12 nM, replicate 3",10.00
same,Live,"[2]; DBG 12 nM, replicate 3",57.80
same,Total apopt,"[2]; DBG 12 nM, replicate 3",42.10
same,cell viability (relative to untreated = 100.00),"[3]; DBG 12 nM, mean of 3",38.91
same,cell viability (relative to untreated = 100.00),"[3]; DBG 12 nM, replicate 1",39.88
same,cell viability (relative to untreated = 100.00),"[3]; DBG 12 nM, replicate 2",38.76
same,cell viability (relative to untreated = 100.00),"[3]; DBG 12 nM, replicate 3",38.08
same,cell viability (relative to untreated = 100.00),"[3]; NAC 4 mM + DBG 12 nM, mean of 3",99.25
same,cell viability (relative to untreated = 100.00),"[3]; NAC 4 mM + DBG 12 nM, replicate 1",100.78
same,cell viability (relative to untreated = 100.00),"[3]; NAC 4 mM + DBG 12 nM, replicate 2",98.32
same,cell viability (relative to untreated = 100.00),"[3]; NAC 4 mM + DBG 12 nM, replicate 3",98.66
same,anticancer activity of DBG after NAC pretreatment,"[3]; NAC 4 mM, 3 h, DBG 48 h",decreased
same,cytotoxicity after NAC pretreatment,"[3]; NAC 4 mM, DBG 12 nM","a little, if any, cytotoxicity only at 12 nM"
same,Bim protein/actin,"[4]; HCC827, DBG 3 nM, DBG 0 nM 0.53",0.53
same,Bim protein Ratio,"[4]; HCC827, DBG 3 nM, relative to DBG 12 nM = 1.00",0.48
same,Bim protein/actin,"[4]; HCC827, DBG 6 nM, DBG 0 nM 0.53",0.73
same,Bim protein Ratio,"[4]; HCC827, DBG 6 nM, relative to DBG 12 nM = 1.00",0.65
same,Bim protein Ratio,"[4]; HCC827, DBG 12 nM (reference of the ratio, 1.00)",1.00
same,Bim protein/actin,"[4]; HCC827, DBG 12 nM, DBG 0 nM 0.53",1.12
same,Bim protein/actin,"[4]; HCC827GR, DBG 3 nM, DBG 0 nM 0.15",0.23
same,level of Bim,"[4]; NSCLC cells, DBG",increased
same,G0/G1 distribution,"[5]; DBG 3 nM, mean of 3 samples",61.33
same,G2/M distribution,"[5]; DBG 3 nM, mean of 3 samples",31.20
same,S distribution,"[5]; DBG 3 nM, mean of 3 samples",7.47
same,G0/G1 distribution,"[5]; DBG 3 nM, sample 1",60.80
same,G2/M distribution,"[5]; DBG 3 nM, sample 1",31.60
same,S distribution,"[5]; DBG 3 nM, sample 1",7.60
same,G0/G1 distribution,"[5]; DBG 3 nM, sample 2",61.70
same,G2/M distribution,"[5]; DBG 3 nM, sample 2",31.40
same,S distribution,"[5]; DBG 3 nM, sample 2",6.90
same,G0/G1 distribution,"[5]; DBG 3 nM, sample 3",61.50
same,G2/M distribution,"[5]; DBG 3 nM, sample 3",30.60
same,S distribution,"[5]; DBG 3 nM, sample 3",7.90
same,G0/G1 distribution,"[5]; DBG 6 nM, mean of 3 samples",64.27
same,G2/M distribution,"[5]; DBG 6 nM, mean of 3 samples",28.30
same,S distribution,"[5]; DBG 6 nM, mean of 3 samples",7.43
same,G0/G1 distribution,"[5]; DBG 6 nM, sample 1",65.20
same,G2/M distribution,"[5]; DBG 6 nM, sample 1",27.50
same,S distribution,"[5]; DBG 6 nM, sample 1",7.30
same,G0/G1 distribution,"[5]; DBG 6 nM, sample 2",63.60
same,G2/M distribution,"[5]; DBG 6 nM, sample 2",28.30
same,S distribution,"[5]; DBG 6 nM, sample 2",8.10
same,G0/G1 distribution,"[5]; DBG 6 nM, sample 3",64.00
same,G2/M distribution,"[5]; DBG 6 nM, sample 3",29.10
same,S distribution,"[5]; DBG 6 nM, sample 3",6.90
same,G0/G1 distribution,"[5]; DBG 12 nM, mean of 3 samples",74.37
same,G2/M distribution,"[5]; DBG 12 nM, mean of 3 samples",19.80
same,S distribution,"[5]; DBG 12 nM, mean of 3 samples",5.83
same,G0/G1 distribution,"[5]; DBG 12 nM, sample 1",73.00
same,G2/M distribution,"[5]; DBG 12 nM, sample 1",21.00
same,S distribution,"[5]; DBG 12 nM, sample 1",6.00
same,G0/G1 distribution,"[5]; DBG 12 nM, sample 2",75.10
same,G2/M distribution,"[5]; DBG 12 nM, sample 2",19.40
same,S distribution,"[5]; DBG 12 nM, sample 2",5.50
same,G0/G1 distribution,"[5]; DBG 12 nM, sample 3",75.00
same,G2/M distribution,"[5]; DBG 12 nM, sample 3",19.00
same,S distribution,"[5]; DBG 12 nM, sample 3",6.00
